Data as given in US20030220361A1, “Nicotinamide derivatives and a tiotropium salt in combination for the treatment of diseases” (priority 2002, published 2003).

Test system: TNFα release from human peripheral blood mononuclear cells
Experiment: Inhibition of LPS-stimulated TNFα release from human peripheral blood mononuclear cells (TNFα screen)
Type: cell-based
Settings: human PBMC, LPS stimulation, 18 hours incubation, TNFα in supernatant by ELISA
Experimental: Venous blood is collected from healthy volunteers and the mononuclear cells purified by centrifugation through Histopaque (Ficoll) cushions. TNFα production from these cells is stimulated by addition of lipopolysaccharide. After 18 hours incubation in the presence of LPS, the cell supernatant is removed and the concentration of TNFa in the supernatant determined by ELISA. Addition of PDE4 inhibitors reduces the. amount of TNFQ produced. An IC50 is determined which is equal to the concentration of compound that gives 50% inhibition TNFα production as compared to the LPS stimulated control wells.

Compared with COc1cccc(Oc2ncc(F)cc2C(=O)N[C@H]2CC[C@@H](NC(=O)c3ccc(OC)cc3O)CC2)c1 [Example 197], COc1ccc(C(=O)N[C@H]2CC[C@@H](NC(=O)c3cc(F)cnc3Oc3ccc(F)c(Cl)c3)CC2)c(O)c1 [Example 156] is 13-fold lower in IC50: 1.8 nM for the first, 0.14 nM for the second. The second is the more potent here.

Compared with O=C(Cc1cccc(O)c1)N[C@H]1CC[C@H](NC(=O)c2cc(F)cnc2Oc2ccc(F)cc2)CC1 [Example 25], O=C(CCc1cccc(O)c1)N[C@H]1CC[C@H](NC(=O)c2cc(F)cnc2Oc2ccc(F)cc2)CC1 [Example 28] is 26-fold higher in IC50: 8.5 nM for the first, 217 nM for the second. The first is the more potent here.

Compared with COc1ccc(C(=O)N[C@H]2CC[C@@H](NC(=O)c3cc(F)cnc3Oc3ccc(F)cc3)CC2)cc1O [Example 54], COc1cc(C(=O)O)ccc1C(=O)N[C@H]1CC[C@@H](NC(=O)c2cc(F)cnc2Oc2ccc(F)cc2)CC1 [Example 137] is 5.7-fold higher in IC50: 2.8 nM for the first, 16 nM for the second.

Compared with O=C(N[C@H]1C[C@H]2CC[C@@H](C1)N2C(=O)Cc1ccc(O)cc1)c1cc(F)cnc1Oc1ccc(F)cc1 [Example 92, endo-5-Fluoro-2-(4-fluoro-phenoxy)-N-{8-[2-(4-hydroxy-phenyl)-acetyl]-8-aza-bicyclo[3.2.1]oct-3-yl}-nicotinamide], O=C(NC1CCN(C(=O)Cc2ccc(O)cc2)CC1)c1cc(F)cnc1Oc1ccc(F)cc1 [Example 88] is 1.6-fold lower in IC50: 185 nM for the first, 114 nM for the second.

Going from CC(=O)N(Cc1ccccc1O)C1CCC(NC(=O)c2cc(F)cnc2Oc2ccc(F)cc2)CC1 (stereo not drawn) [Example 44, Anti-N-{4-[Acetyl-(2-hydroxybenzyl)-amino]-cyclohexyl}-5-fluoro-2-(4-fluoro-phenoxy)-nicotinamide] to O=C(Cc1ccccc1O)N[C@H]1CC[C@@H](NC(=O)c2cc(F)cnc2Oc2ccc(F)cc2)CC1 [Example 51], the IC50 falls from 91 nM to 2.09 nM (44-fold). The second is the more potent here.

Going from O=C(O)c1ccnc(C(=O)N[C@H]2CC[C@@H](NC(=O)c3cc(F)cnc3Oc3ccc(F)cc3)CC2)c1 [Example 135] to O=C(N[C@H]1CC[C@H](NC(=O)c2ncccc2O)CC1)c1cc(F)cnc1Oc1ccc(F)cc1 [Example 27], the IC50 falls from 74 nM to 39.5 nM (1.9-fold). The second is the more potent here.

Compared with O=C(N[C@H]1CC[C@@H](C(=O)NCc2ccccc2O)CC1)c1cccnc1Oc1ccc(F)cc1 [Example 172, Syn-2-(4-Fluoro-phenoxy)-N-[4-(2-hydroxy-benzyl-carba-moyl)-cyclohexyl]-nicotinamide], O=C(NC1CCN(C(=O)CCc2ccccc2O)CC1)c1cc(F)cnc1Oc1ccc(F)cc1 [Example 91] is 8.6-fold higher in IC50: 4.3 nM for the first, 37 nM for the second. The first is the more potent here.

Going from O=C(N[C@H]1CC[C@H](NC(=O)c2cc(F)cnc2Oc2ccc3c(c2)OCO3)CC1)c1ccc(O)cc1 [Example 6] to O=C(N[C@H]1CC[C@@H](NC(=O)c2cc(F)cnc2Oc2ccc(F)cc2)CC1)c1cccc(O)c1 [Example 48], the IC50 falls from 23.5 nM to 1.66 nM (14-fold). The second is the more potent here.

Cc1ccc(O)c(C(=O)NC2CCC(NC(=O)c3cc(F)cnc3Oc3cccc(F)c3)CC2)c1 (centres unmarked) [Example 213] and Cc1ccc(O)c(C(=O)N[C@H]2CC[C@@H](NC(=O)c3cc(F)cnc3Oc3cccc(C4CC4)c3)CC2)c1 [Example 204] are within 1.5-fold of each other in IC50: 0.2 nM for the first, 0.3 nM for the second.

O=C(NC1CCN(C(=O)c2cc(F)ccc2O)CC1)c1cc(F)cnc1Oc1ccc(F)cc1 [Example 85] and Cc1ccc(C(=O)N2CCC(NC(=O)c3cc(F)cnc3Oc3ccc(F)cc3)CC2)c(O)c1 [Example 79, 5-Fluoro-2-(4-fluoro-phenoxy)-N-[1-(2-hydroxy-4-methyl-benzoyl)-piperidin-4-yl]-nicotinamide] are within 1.5-fold of each other in IC50: 28 nM for the first, 25.5 nM for the second.

Going from COc1ccc(C(=O)N[C@H]2CC[C@@H](NC(=O)c3cc(F)cnc3Oc3ccc(F)c(F)c3)CC2)c(O)c1 [Example 155] to COc1ccc(O)c(C(=O)N[C@H]2CC[C@@H](NC(=O)c3cc(F)cnc3Oc3ccc(F)c(F)c3)CC2)c1 [Example 187], the IC50 falls from 0.09 nM to 0.006 nM (15-fold).

Compared with O=C(NC1CCC(NC(=O)c2c(O)cccc2F)CC1)c1cc(F)cnc1Oc1ccc(F)c(F)c1 (stereo not drawn) [Example 41, Anti-5-Fluoro-2-(3,4-difluoro-phenoxy)-N-[4-(2-fluoro-6-hydroxy-benzoylmino)-cyclohexyl]-Nicotinamide], O=C(N[C@H]1CC[C@@H](NC(=O)c2cc(F)cnc2Oc2ccc(F)c(F)c2)CC1)c1ccccc1O [Example 190] is 82-fold lower in IC50: 4.9 nM for the first, 0.06 nM for the second.

Going from CC(C)(CC(=O)N[C@H]1CC[C@@H](NC(=O)c2cc(F)cnc2Oc2ccc(F)cc2)CC1)C(=O)O [Example 129] to O=C(Cc1ccc(O)c(F)c1)N[C@H]1CC[C@@H](NC(=O)c2cc(F)cnc2Oc2ccc(F)cc2)CC1 [Example 56], the IC50 falls from 30 nM to 1.9 nM (16-fold). The second is the more potent here.

Compared with O=C(NC1CCC(NC(=O)C(O)C2CCCCC2)CC1)c1cc(F)cnc1Oc1ccc(F)cc1 (centres unmarked) [Example 106], O=C(N[C@H]1CC[C@H](NC(=O)c2cc(F)cnc2Oc2ccc(F)cc2)CC1)c1cc(O)ccc1O [Example 26] is 1.5-fold higher in IC50: 3.6 nM for the first, 5.4 nM for the second. The first is the more potent here.

Going from O=C(O)c1ccccc1C(=O)N1[C@@H]2CC[C@H]1C[C@H](NC(=O)c1cc(F)cnc1Oc1ccc(F)cc1)C2 [Example 100, exo-2-(3-{[5-Fluoro-2-(4-fluoro-phenoxy)-pyridine-3-carbonyl]-amino}8-aza-bicyclo[3.2.1]octane-8-carbonyl}-benzoic Acid] to O=C(NC1CCN(C(=O)c2ccc3ccccc3c2O)CC1)c1cc(F)cnc1Oc1ccc(F)cc1 [Example 81], the IC50 falls from 56 nM to 30 nM (1.9-fold). The second is the more potent here.

Going from COc1ccc(C(=O)N[C@H]2CC[C@H](NC(=O)c3cc(F)cnc3Oc3ccc(F)cc3)CC2)c(O)c1 [Example 23] to Cc1ccc(C(=O)NC2CCC(NC(=O)c3cc(F)cnc3Oc3ccc(F)cc3)CC2)c(O)c1 (stereo not drawn) [Example 47, Syn-5-Fluoro-2-(4-fluoro-phenoxy)-N-[4-(2-hydroxy-4-methyl-benzoylamino)-cyclohexyl]-nicotinamide], the IC50 falls from 7.8 nM to 0.28 nM (28-fold). The second is the more potent here.

Compared with O=C(N[C@H]1CC[C@@H](NC(=O)c2cc(F)cnc2Oc2ccc(F)c(F)c2)CC1)c1cc(Cl)c(Cl)cc1O [Example 193], O=C(N[C@H]1CC[C@@H](NC(=O)c2cc(F)cnc2Oc2ccc(F)c(F)c2)CC1)c1ccc(Cl)cc1O [Example 186] is 45-fold lower in IC50: 9 nM for the first, 0.2 nM for the second. The second is the more potent here.

Cc1ccc(C(=O)N[C@H]2CC[C@@H](NC(=O)c3cc(F)cnc3Oc3cccc(OC(F)(F)F)c3)CC2)c(O)c1 [Example 195, Syn-5-Fluoro-N-[4-(2-hydroxy-4-methyl-benzoylamino)-cyclohexyl]-2-(3-trifluoromethoxy-phenoxy)-nicotinamide] and Cc1ccc(C(=O)N[C@H]2CC[C@@H](NC(=O)c3cc(F)cnc3Oc3cccc(Br)c3)CC2)c(O)c1 [Example 201] are within 1.5-fold of each other in IC50: 0.4 nM for the first, 0.3 nM for the second.

Compared with O=C(N[C@H]1CC[C@@H](NC(=O)c2cc(F)cnc2Oc2ccc(F)c(F)c2)CC1)c1cc(CO)ccc1O [Example 183], Cc1ccc(O)c(C(=O)N[C@H]2CC[C@@H](NC(=O)c3cc(F)cnc3Oc3ccc(F)c(F)c3)CC2)c1 [Example 174, Syn-2-(3.4-Difluoro-phenoxy)-5-fluoro-N-[4-(2-hydroxy-5-methyl-benzoylamino)-cyclohexyl]-nicotinamide] is 5-fold lower in IC50: 0.07 nM for the first, 0.014 nM for the second. The second is the more potent here.

Compared with COc1ccc(C(=O)N[C@H]2CC[C@@H](NC(=O)c3cc(F)cnc3Oc3ccc4c(c3)CCC4)CC2)c(O)c1 [Example 159], Cc1ccc(C(=O)N[C@H]2CC[C@@H](NC(=O)c3cc(F)cnc3Oc3ccc(F)c(Cl)c3)CC2)c(O)c1 [Example 200] is 92-fold lower in IC50: 4.6 nM for the first, 0.05 nM for the second. The second is the more potent here.

Work on O=C(Cc1ccc(O)c(Cl)c1)N[C@H]1CC[C@@H](NC(=O)c2cc(F)cnc2Oc2ccc(F)cc2)CC1 [Example 58] yielded an IC50 of 3.5 nM.
